The subject of the series is rodent lifetime carcinogenesis bioassay, tumor incidence TD50. Nature of the series: carcinogenic potency in animals, long-term in vivo studies, CPDB compilation (AID 1745844).

The source made the active and inactive calls. The rule behind the calls is not given here.

As to `Cc1cnc2ccc3c(nc(N)n3C)c2n1`, the TD50 by setting is: (mouse, strain CDF1, females, in feed, site: all sites, lesion: lymphoma and leukemia, combined, dosed 84 weeks, study length 84 weeks) 6820 mg/kg/day; (mouse, strain CDF1, females, in feed, site: liver, lesion: hepatocellular adenoma, dosed 84 weeks, study length 84 weeks) 14.2 mg/kg/day; (mouse, strain CDF1, females, in feed, site: liver, lesion: hepatocellular carcinoma, dosed 84 weeks, study length 84 weeks) 27.8 mg/kg/day; (mouse, strain CDF1, females, in feed, site: liver, lesion: several types, types named in the paper, dosed 84 weeks, study length 84 weeks) 14.2 mg/kg/day; (mouse, strain CDF1, females, in feed, site: lung, lesion: adenocarcinoma, dosed 84 weeks, study length 84 weeks) 257 mg/kg/day; (mouse, strain CDF1, females, in feed, site: lung, lesion: adenoma, dosed 84 weeks, study length 84 weeks) 143 mg/kg/day. The TD50 was 77.2 mg/kg/day (mouse, strain CDF1, females, in feed, site: lung, lesion: several types, types named in the paper, dosed 84 weeks, study length 84 weeks); 109 mg/kg/day (mouse, strain CDF1, males, in feed, site: all sites, lesion: lymphoma and leukemia, combined, dosed 84 weeks, study length 84 weeks); 86.9 mg/kg/day (mouse, strain CDF1, males, in feed, site: liver, lesion: hepatocellular adenoma, dosed 84 weeks, study length 84 weeks); 102 mg/kg/day (mouse, strain CDF1, males, in feed, site: liver, lesion: hepatocellular carcinoma, dosed 84 weeks, study length 84 weeks); 83.8 mg/kg/day (mouse, strain CDF1, males, in feed, site: liver, lesion: several types, types named in the paper, dosed 84 weeks, study length 84 weeks); 236 mg/kg/day (mouse, strain CDF1, males, in feed, site: lung, lesion: adenocarcinoma, dosed 84 weeks, study length 84 weeks). Also, the TD50 is, setting by setting: (mouse, strain CDF1, males, in feed, site: lung, lesion: adenoma, dosed 84 weeks, study length 84 weeks) 262 mg/kg/day; (mouse, strain CDF1, males, in feed, site: lung, lesion: several types, types named in the paper, dosed 84 weeks, study length 84 weeks) 134 mg/kg/day; (rat, strain F344/DuCrj, females, in feed, site: Zymbal's gland, lesion: squamous-cell carcinoma, dosed 61 weeks, study length 61 weeks) 6.31 mg/kg/day; (rat, strain F344/DuCrj, females, in feed, site: clitoral gland, lesion: squamous-cell carcinoma, dosed 61 weeks, study length 61 weeks) 4.72 mg/kg/day; (rat, strain F344/DuCrj, females, in feed, site: liver, lesion: neoplastic nodule, dosed 61 weeks, study length 61 weeks) 6.31 mg/kg/day; (rat, strain F344/DuCrj, females, in feed, site: skin, lesion: squamous-cell carcinoma, dosed 61 weeks, study length 61 weeks) 87.2 mg/kg/day. The TD50 (rat, strain F344/DuCrj, males, in feed, site: Zymbal's gland, lesion: sebaceous adenoma, dosed 56 weeks, study length 56 weeks) is 38.9 mg/kg/day; the TD50 (rat, strain F344/DuCrj, males, in feed, site: Zymbal's gland, lesion: several types, types named in the paper, dosed 56 weeks, study length 56 weeks) was 4.91 mg/kg/day; the TD50 (rat, strain F344/DuCrj, males, in feed, site: Zymbal's gland, lesion: several types, types named in the paper, dosed 61 weeks, study length 61 weeks) is 2.72 mg/kg/day; the TD50 (rat, strain F344/DuCrj, males, in feed, site: Zymbal's gland, lesion: squamous-cell carcinoma, dosed 56 weeks, study length 56 weeks) is 8.6 mg/kg/day; the TD50 (rat, strain F344/DuCrj, males, in feed, site: Zymbal's gland, lesion: squamous-cell carcinoma, dosed 61 weeks, study length 61 weeks) is 3.59 mg/kg/day; the TD50 (rat, strain F344/DuCrj, males, in feed, site: Zymbal's gland, lesion: squamous-cell papilloma, dosed 56 weeks, study length 56 weeks) was 29.1 mg/kg/day. Besides, the TD50 runs as follows: (rat, strain F344/DuCrj, males, in feed, site: Zymbal's gland, lesion: squamous-cell papilloma, dosed 61 weeks, study length 61 weeks) 35.8 mg/kg/day; (rat, strain F344/DuCrj, males, in feed, site: liver, lesion: hepatocellular adenoma, dosed 56 weeks, study length 56 weeks) 3.15 mg/kg/day; (rat, strain F344/DuCrj, males, in feed, site: liver, lesion: hepatocellular carcinoma, dosed 56 weeks, study length 56 weeks) 2.91 mg/kg/day; (rat, strain F344/DuCrj, males, in feed, site: liver, lesion: hepatocellular carcinoma, dosed 61 weeks, study length 61 weeks) 1.26 mg/kg/day; (rat, strain F344/DuCrj, males, in feed, site: liver, lesion: neoplastic nodule, dosed 61 weeks, study length 61 weeks) 73.5 mg/kg/day; (rat, strain F344/DuCrj, males, in feed, site: liver, lesion: several types, types named in the paper, dosed 56 weeks, study length 56 weeks) 1.24 mg/kg/day. For the same compound, the TD50 (rat, strain F344/DuCrj, males, in feed, site: skin, lesion: basal-cell carcinoma, dosed 61 weeks, study length 61 weeks) was found to be 73.5 mg/kg/day; the TD50 (rat, strain F344/DuCrj, males, in feed, site: skin, lesion: sebaceous adenoma, dosed 56 weeks, study length 56 weeks) came to 58.8 mg/kg/day; the TD50 (rat, strain F344/DuCrj, males, in feed, site: skin, lesion: several types, types named in the paper, dosed 56 weeks, study length 56 weeks) was 12 mg/kg/day; the TD50 (rat, strain F344/DuCrj, males, in feed, site: skin, lesion: several types, types named in the paper, dosed 61 weeks, study length 61 weeks) is 8.76 mg/kg/day; the TD50 (rat, strain F344/DuCrj, males, in feed, site: skin, lesion: squamous-cell carcinoma, dosed 56 weeks, study length 56 weeks) worked out at 59.2 mg/kg/day; the TD50 (rat, strain F344/DuCrj, males, in feed, site: skin, lesion: squamous-cell carcinoma, dosed 61 weeks, study length 61 weeks) is 13.1 mg/kg/day. In addition, the TD50 reads like this: (rat, strain F344/DuCrj, males, in feed, site: skin, lesion: squamous-cell papilloma, dosed 56 weeks, study length 56 weeks) 59.2 mg/kg/day; (rat, strain F344/DuCrj, males, in feed, site: skin, lesion: squamous-cell papilloma, dosed 61 weeks, study length 61 weeks) 73.5 mg/kg/day; (rat, strain F344/DuCrj, males, in feed, site: skin, lesion: trichoepithelioma, dosed 56 weeks, study length 56 weeks) 38.9 mg/kg/day. Further, the carcinogen call (rat, strain F344/DuCrj, males, in feed, site: liver, lesion: several types, types named in the paper, dosed 61 weeks, study length 61 weeks) is “positive”.

For `N=c1ccn2c(n1)O[C@H]1[C@H](O)[C@@H](CO)O[C@H]12`, the carcinogen call is “negative (inactive)” (rat, strain Wistar, females, i.p., site: any site (literature study), lesion: one or several types, types not named, dosed 52 weeks, study length 52 weeks); “negative (inactive)” (rat, strain Wistar, females, i.p., site: any site (literature study), lesion: several types, types named in the paper, dosed 104 weeks, study length 104 weeks); “negative (inactive)” (rat, strain Wistar, males, i.p., site: any site (literature study), lesion: one or several types, types not named, dosed 52 weeks, study length 52 weeks); “negative (inactive)” (rat, strain Wistar, males, i.p., site: any site (literature study), lesion: several types, types named in the paper, dosed 104 weeks, study length 104 weeks).

Turning to `Nc1c(N=Nc2ccc([N+](=O)[O-])cc2)c(S(=O)(=O)O)cc2cc(S(=O)(=O)O)c(N=Nc3ccccc3)c(O)c12`, the carcinogen call by setting is: (rat, strain Not specified, females, in feed, site: any site (literature study), lesion: several types, types named in the paper, dosed 64 weeks, study length 64 weeks) “negative (inactive)”; (rat, strain Not specified, females, in feed, site: liver, lesion: one or several types, types not named, dosed 64 weeks, study length 64 weeks) “negative (inactive)”; (rat, strain Not specified, males, in feed, site: any site (literature study), lesion: several types, types named in the paper, dosed 64 weeks, study length 64 weeks) “negative (inactive)”; (rat, strain Not specified, males, in feed, site: liver, lesion: one or several types, types not named, dosed 64 weeks, study length 64 weeks) “negative (inactive)”.

`CC(C)CCCCCOC(=O)COc1ccc(Cl)cc1Cl`: the carcinogen call (mouse, strain B6AKF1, females, oral dosing, site: any site (literature study), lesion: several types, types named in the paper, dosed 76 weeks, study length 76 weeks) was “negative (inactive)”; the carcinogen call (mouse, strain B6AKF1, females, oral dosing, site: liver, lesion: hepatoma, dosed 76 weeks, study length 76 weeks) was “negative (inactive)”; the carcinogen call (mouse, strain B6AKF1, females, oral dosing, site: lung, lesion: adenoma, dosed 76 weeks, study length 76 weeks) was “negative (inactive)”; the carcinogen call (mouse, strain B6AKF1, males, oral dosing, site: any site (literature study), lesion: several types, types named in the paper, dosed 76 weeks, study length 76 weeks) is “negative (inactive)”; the carcinogen call (mouse, strain B6AKF1, males, oral dosing, site: liver, lesion: hepatoma, dosed 76 weeks, study length 76 weeks) was “negative (inactive)”; the carcinogen call (mouse, strain B6AKF1, males, oral dosing, site: lung, lesion: several types, types named in the paper, dosed 76 weeks, study length 76 weeks) is “negative (inactive)”. Also, the carcinogen call by setting is: (mouse, strain B6C3F1, females, oral dosing, site: liver, lesion: hepatoma, dosed 76 weeks, study length 76 weeks) “negative (inactive)”; (mouse, strain B6C3F1, males, oral dosing, site: lung, lesion: several types, types named in the paper, dosed 76 weeks, study length 76 weeks) “negative (inactive)”. Further, the TD50 is 24.6 mg/kg/day (inactive) (mouse, strain B6C3F1, females, oral dosing, site: any site (literature study), lesion: several types, types named in the paper, dosed 76 weeks, study length 76 weeks); 34 mg/kg/day (inactive) (mouse, strain B6C3F1, females, oral dosing, site: lung, lesion: adenoma, dosed 76 weeks, study length 76 weeks); 17.7 mg/kg/day (inactive) (mouse, strain B6C3F1, males, oral dosing, site: any site (literature study), lesion: several types, types named in the paper, dosed 76 weeks, study length 76 weeks); 31.7 mg/kg/day (inactive) (mouse, strain B6C3F1, males, oral dosing, site: liver, lesion: hepatoma, dosed 76 weeks, study length 76 weeks).

For the compound `Nc1ccc(N)cc1`, the TD50 is 1500 mg/kg/day (inactive) (mouse, strain B6C3F1, females, in feed, site: any site (literature study), lesion: several types, types named in the paper, dosed 103 weeks, study length 104 weeks); 1370 mg/kg/day (mouse, strain B6C3F1, females, in feed, site: liver, lesion: hepatocellular adenoma + hepatocellular carcinoma + neoplastic nodule, dosed 103 weeks, study length 104 weeks); 1390 mg/kg/day (mouse, strain B6C3F1, females, in feed, site: lung, lesion: alveolar/bronchiolar adenoma + alveolar/bronchiolar carcinoma, dosed 103 weeks, study length 104 weeks); 4280 mg/kg/day (inactive) (rat, strain Fischer 344, females, in feed, site: adrenal gland, lesion: pheochromocytoma, dosed 80 weeks, study length 80 weeks); 247 mg/kg/day (inactive) (rat, strain Fischer 344, females, in feed, site: any site (literature study), lesion: several types, types named in the paper, dosed 103 weeks, study length 116 weeks); 2230 mg/kg/day (rat, strain Fischer 344, males, in feed, site: liver, lesion: hepatocellular adenoma + hepatocellular carcinoma + neoplastic nodule, dosed 103 weeks, study length 116 weeks). Besides, the carcinogen call is “negative (inactive)” (mouse, strain B6C3F1, males, in feed, site: any site (literature study), lesion: several types, types named in the paper, dosed 103 weeks, study length 104 weeks); “negative (inactive)” (rat, strain Fischer 344, males, in feed, site: adrenal gland, lesion: pheochromocytoma, dosed 80 weeks, study length 80 weeks); “negative (inactive)” (rat, strain Fischer 344, males, in feed, site: any site (literature study), lesion: several types, types named in the paper, dosed 103 weeks, study length 116 weeks).

With `COc1ccc(C(Cl)=C(c2ccc(OC)cc2)c2ccc(OC)cc2)cc1`, the carcinogen call was “negative (inactive)” (rat, strain Charles River CD (Sprague-Dawley), females, in feed, site: liver, lesion: one or several types, types not named, dosed 104 weeks, study length 104 weeks) and “negative (inactive)” (rat, strain Charles River CD (Sprague-Dawley), males, in feed, site: liver, lesion: one or several types, types not named, dosed 104 weeks, study length 104 weeks).

As usually defined, the TD50 is the dose at which the toxic effect under study appears in half of the subjects.

For the origin of these results see PubChem BioAssay AID1745844 (Carcinogenic Potency Database (CPDB), 2022).
